Results: US20130190248A1, “S[…] ANALOGS” (AGENSYS, INC., priority 2011, published 2013)
Where a SMILES comes first, the peptide text is derived from it. [ ]: non-standard residue; d: D form. The star is where a group is joined. Dolaproine = CO[C@@H]([C@@H]1CCCN1)[C@@H](C)C(=O)O; Dil = CC[C@H](C)[C@H](NC)[C@@H](CC(=O)O)OC; NH(2-(2-pyridyl)ethyl) = c1ccc(CCN*)nc1; NMeV = CN[C@H](C(=O)O)C(C)C

Test system: SW780 human bladder cancer cells
Assay: In vivo efficacy in subcutaneously established human bladder cancer cell line SW780 implanted in ICR SCID mice
Conditions: QW for 3 weeks, SW780 xenograft, male ICR SCID mice
Description: Determination of In Vivo Efficacy of Test Compounds: Efficacy Evaluation in Subcutaneously Established Human Bladder Cancer Cell Line SW780 Implanted in ICR SCID Mice
For animal in vivo studies, the test compounds were diluted with 20 mM Histidine, 5% Sucrose, pH 6 with 15% DMSO. Male ICR SCID mice (Taconic Farm, Hudson, N.Y.) were housed in standard rodent micro isolator cages. Environment controls for the animal rooms were set to maintain a temperature between 68-75° F., a relative humidity between 30% to 70%, and an approximate 12 h light/12 h dark cycle. Food and water was provided ad libitum. After 72 h of acclimatization, the mice were implanted with SW780 human bladder cancer cells (2×10^6 cells/mouse), suspended in 50% complete cultrex (Trevigen, Inc.) mixed with 1×PBS (Gibco), and the tumor growth rate was monitored. When the average tumor volume reached ˜200 mm^3, tumors were size-matched and mice were randomized to treatment groups (n=8 or 10). The tumor-bearing mice were treated i.v. with Vehicle or test compound at 2 or 4 mg/kg (mpk) on a QW dosing schedule for 3 weeks. Tumor volume was assessed twice weekly using caliper measurement.

Compound	effect on tumor growth (mean tumor volume versus days of treatment) (2 mg/kg i.v.)	effect on tumor growth (mean tumor volume versus days of treatment) (4 mg/kg i.v.)
CC[C@H](C)[C@@H]([C@@H](CC(=O)N1CCC[C@H]1[C@H](OC)[C@@H](C)C(=O)NCCc1ccccn1)OC)N(C)C(=O)[C@@H](NC(=O)[C@@H](NC)C(C)C)C(C)C [Example 1, (S)—N-((3R,4S,5S)-3-Methoxy-1-((S)-2-((1R,2R)-1-methoxy-2-methyl-3-oxo-3-((2-(pyridin-2-yl)ethyl)amino)propyl)pyrrolidin-1-yl)-5-methyl-1-oxoheptan-4-yl)-N,3-dimethyl-2-((S)-3-methyl-2-(methylamino)butanamido)butanamide] (H-[NMeV]V[Dil][Dolaproine]-{NH(2-(2-pyridyl)ethyl)})	tumor stasis	tumor stasis
CC[C@H](C)[C@@H]([C@@H](CC(=O)N1CCC[C@H]1[C@H](OC)[C@@H](C)C(=O)NCCc1ccc(N)cc1)OC)N(C)C(=O)[C@@H](NC(=O)[C@H](C(C)C)N(C)C)C(C)C [Example 22, (S)—N-((3R,4S,5S)-1-((S)-2-((1R,2R)-3-((4-aminophenethyl)amino)-1-methoxy-2-methyl-3-oxopropyl)pyrrolidin-1-yl)-3-methoxy-5-methyl-1-oxoheptan-4-yl)-2-((S)-2-(dimethylamino)-3-methylbutanamido)-N,3-dimethylbutanamide]	tumor stasis	–
